# pIC50: −log10 of the molar value.
# How the values were obtained:
# [1] = target: 2-acylglycerol O-acyltransferase 2 (Homo sapiens, UniProt Q3SYC2); experiment: Inhibition of human recombinant MGAT2 assessed as reduction in enzyme-mediated deacylation of oleoyl-CoA incubated for 20 mins by CPM dye based fluorescence assay
# [2] = target: 2-acylglycerol O-acyltransferase 2 (Mus musculus, UniProt Q80W94); experiment: Inhibition of mouse recombinant MGAT2 assessed as reduction in enzyme-mediated deacylation of oleoyl-CoA incubated for 20 mins by CPM dye based fluorescence assay
# Sequence of 2-acylglycerol O-acyltransferase 2 (Mus musculus, UniProt Q80W94) (Q80W94 whole entry): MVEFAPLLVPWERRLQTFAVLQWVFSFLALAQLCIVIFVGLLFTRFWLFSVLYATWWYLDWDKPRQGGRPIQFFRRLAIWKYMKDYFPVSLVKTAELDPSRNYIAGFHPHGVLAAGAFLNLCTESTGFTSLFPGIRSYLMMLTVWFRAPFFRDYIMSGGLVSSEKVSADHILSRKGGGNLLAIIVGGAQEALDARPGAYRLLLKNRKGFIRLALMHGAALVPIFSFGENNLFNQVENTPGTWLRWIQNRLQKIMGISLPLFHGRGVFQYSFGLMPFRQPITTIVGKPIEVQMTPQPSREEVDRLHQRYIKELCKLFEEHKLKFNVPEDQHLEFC
# [3] = Solubility in water; assay type: physicochemical
# [4] = Drug metabolism in human liver microsomes incubated for 15 mins; assay type: ADME; conditions: read-out: Drug metabolism
# [5] = Drug metabolism in mouse liver microsomes incubated for 15 mins; assay type: ADME; conditions: read-out: Drug metabolism
# [6] = Solubility in FeSSIF solution at pH 5.0; assay type: physicochemical
# [7] = Cmax in mouse at 100 mg/kg, po; assay type: ADME, organism-based; design: dose 100 mg/kg, route oral; conditions: in vivo
# [8] = AUC (0 to 4 hrs) in mouse at 100 mg/kg, po; assay type: ADME, organism-based; design: dose 100 mg/kg, time < 4 hr, route oral; conditions: in vivo
# [9] = tested on: Mus musculus; experiment: Inhibition of fat absorption in mouse assessed as reduction in plasma triglyceride AUC (0 to 4 hrs) level at 100 mg/kg, po by oral lipid tolerance test; assay type: functional
# Sequence of 2-acylglycerol O-acyltransferase 2 (Homo sapiens, UniProt Q3SYC2) (Q3SYC2 whole entry): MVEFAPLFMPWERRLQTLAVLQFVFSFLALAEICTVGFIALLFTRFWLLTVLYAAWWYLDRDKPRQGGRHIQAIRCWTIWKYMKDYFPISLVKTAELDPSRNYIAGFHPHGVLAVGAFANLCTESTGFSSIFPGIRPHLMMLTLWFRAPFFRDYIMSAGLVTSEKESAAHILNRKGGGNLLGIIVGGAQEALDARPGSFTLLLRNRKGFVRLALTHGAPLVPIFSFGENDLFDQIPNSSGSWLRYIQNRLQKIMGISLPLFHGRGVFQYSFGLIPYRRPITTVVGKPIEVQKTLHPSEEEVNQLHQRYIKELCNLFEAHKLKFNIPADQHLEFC
pIC50 [1],solubility [3] [µg/mL],Compound,other results
5.60,,CCc1cc(F)ccc1NS(=O)(=O)c1ccc2c(c1)CN(C(=O)Nc1ccc(C(C)(C)C)cc1)C2,
,0.607,COc1cc(F)ccc1NS(=O)(=O)c1ccc2c(c1)CN(C(=O)Nc1ccc(C(C)(C)C)cc1)C2,solubility [6]: 28.3 µg/mL; metabolised at 0.25 h [4]: 43.1%; metabolised at 0.25 h [5]: 60.6%; Cmax [7]: 94.3 ng/mL; AUC(0-t) at 4 h [8]: 134 ng·h/mL
5.50,,COc1ccc(NS(=O)(=O)c2ccc3c(c2)CN(C(=O)Nc2ccc(C(C)(C)C)cc2)C3)c(OC)c1,
5.09,< 0.11,CC(C)(C)c1ccc(CC(=O)N2Cc3ccc(S(=O)(=O)Nc4ccc(F)cc4)cc3C2)cc1,
5.67,270,CC(C)(C)c1ccc(CCN2Cc3ccc(S(=O)(=O)Nc4ccc(F)cc4)cc3C2)cc1,

# Further lines, the compound ahead of its results:
Compound,pIC50 [1],solubility [3] [µg/mL],other results
CC(C)(C)c1ccc(NC(=O)N2Cc3ccc(S(=O)(=O)Nc4ccc(F)cc4)cc3C2)cc1,6.23,< 0.07,pIC50 [2]: 5.88; metabolised at 0.25 h [4]: 12.3%; metabolised at 0.25 h [5]: 70.9%
CC(C)(C)c1ccc(NC(=O)N2Cc3ccc(S(=O)(=O)Nc4ccc(F)cc4F)cc3C2)cc1,6.16,,
CC(C)(C)c1ccc(NC(=O)N2Cc3ccc(S(=O)(=O)Nc4ccc(F)cc4Cl)cc3C2)cc1,5.95,,
CCOc1cc(F)ccc1NS(=O)(=O)c1ccc2c(c1)CN(C(=O)Nc1ccc(C(C)(C)C)cc1)C2,6.13,,
CCCOc1cc(F)ccc1NS(=O)(=O)c1ccc2c(c1)CN(C(=O)Nc1ccc(C(C)(C)C)cc1)C2,5.64,,
COc1ccc(NS(=O)(=O)c2ccc3c(c2)CN(C(=O)Nc2ccc(C(C)(C)C)cc2)C3)c(F)c1,,< 0.06,solubility [6]: 0.783 µg/mL; metabolised at 0.25 h [4]: 20.6%; metabolised at 0.25 h [5]: 51.1%
CCOc1ccc(NS(=O)(=O)c2ccc3c(c2)CN(C(=O)Nc2ccc(C(C)(C)C)cc2)C3)c(F)c1,5.28,,
CCCOc1ccc(NS(=O)(=O)c2ccc3c(c2)CN(C(=O)Nc2ccc(C(C)(C)C)cc2)C3)c(F)c1,5.70,,
CCCCOc1ccc(NS(=O)(=O)c2ccc3c(c2)CN(C(=O)Nc2ccc(C(C)(C)C)cc2)C3)c(F)c1,6.26,,
CCCCCOc1ccc(NS(=O)(=O)c2ccc3c(c2)CN(C(=O)Nc2ccc(C(C)(C)C)cc2)C3)c(F)c1,,< 0.06,solubility [6]: 10.2 µg/mL; metabolised at 0.25 h [4]: 0.1%; metabolised at 0.25 h [5]: 12.6%
CC(C)(C)c1ccc(CCN2CCc3ccc(S(=O)(=O)Nc4ccc(F)cc4)cc3C2)cc1,5.51,,
CC(C)(C)c1ccc(CCN2CCc3cc(S(=O)(=O)Nc4ccc(F)cc4)ccc3C2)cc1,5.82,641,pIC50 [2]: 5.93; solubility [6]: 385 µg/mL; metabolised at 0.25 h [4]: 14.6%; metabolised at 0.25 h [5]: 47.8%; Cmax [7]: 1200 ng/mL; AUC(0-t) at 4 h [8]: 1810 ng·h/mL; inhibition in vivo at 100 mg/kg [9]: 57%
